Data reported in ChEMBL document CHEMBL4477208, “Discovery and Rational Design of Pteridin-7(8H)-one-Based Inhibitors Targeting FMS-like Tyrosine Kinase 3 (FLT3) and Its Mutants” (J Med Chem, 2016).

Tests used:
MV4-11 [1] = assay: Cell cycle arrest in human MV4-11 cells assessed as accumulation at G0/G1 phase at 1 nM after 48 hrs by PI/RNase staining based FACS analysis (reference value: 69.55%); format: functional
MV4-11 [2] = assay: Cell cycle arrest in human MV4-11 cells assessed as accumulation at G0/G1 phase at 10 nM after 48 hrs by PI/RNase staining based FACS analysis (reference value: 69.55%); format: functional
MV4-11 [3] = assay: Cell cycle arrest in human MV4-11 cells assessed as accumulation at G2 phase at 10 nM after 48 hrs by PI/RNase staining based FACS analysis (reference value: 13.95%); format: functional
MV4-11 [4] = assay: Cell cycle arrest in human MV4-11 cells assessed as accumulation at S phase at 100 nM after 48 hrs by PI/RNase staining based FACS analysis (reference value: 16.50%); format: functional
MV4-11 [5] = assay: Cell cycle arrest in human MV4-11 cells assessed as accumulation at G0/G1 phase at 1000 nM after 48 hrs by PI/RNase staining based FACS analysis (reference value: 69.55%); format: functional
MV4-11 [6] = assay: Cell cycle arrest in human MV4-11 cells assessed as accumulation at S phase at 1000 nM after 48 hrs by PI/RNase staining based FACS analysis (reference value: 16.50%); format: functional
MV4-11 [7] = assay: Induction of apoptosis in human MV4-11 cells assessed as viable cells at 1 nM after 48 hrs by annexin V/propidium iodide staining based FACS analysis (reference value: 90.60%); format: functional; conditions: MV4-11, 48 h, read-out: Activity
MV4-11 [8] = assay: Induction of apoptosis in human MV4-11 cells assessed as necrotic cells at 1 nM after 48 hrs by annexin V/propidium iodide staining based FACS analysis (reference value: 0.05%); format: functional
MV4-11 [9] = assay: Induction of apoptosis in human MV4-11 cells assessed as early apoptotic cells at 10 nM after 48 hrs by annexin V/propidium iodide staining based FACS analysis (reference value: 6.31%); format: functional
MV4-11 [10] = assay: Induction of apoptosis in human MV4-11 cells assessed as late apoptotic cells at 10 nM after 48 hrs by annexin V/propidium iodide staining based FACS analysis (reference value: 3.01%); format: functional
MV4-11 [11] = assay: Induction of apoptosis in human MV4-11 cells assessed as necrotic cells at 10 nM after 48 hrs by annexin V/propidium iodide staining based FACS analysis (reference value: 0.05%); format: functional
MV4-11 [12] = assay: Induction of apoptosis in human MV4-11 cells assessed as early apoptotic cells at 100 nM after 48 hrs by annexin V/propidium iodide staining based FACS analysis (reference value: 6.31%); format: functional
MV4-11 [13] = assay: Induction of apoptosis in human MV4-11 cells assessed as late apoptotic cells at 100 nM after 48 hrs by annexin V/propidium iodide staining based FACS analysis (reference value: 3.01%); format: functional
MV4-11 [14] = assay: Induction of apoptosis in human MV4-11 cells assessed as viable cells at 10000 nM after 48 hrs by annexin V/propidium iodide staining based FACS analysis (reference value: 90.60%); format: functional; conditions: MV4-11, 48 h, read-out: Activity
MV4-11 [15] = assay: Induction of apoptosis in human MV4-11 cells assessed as late apoptotic cells at 10000 nM after 48 hrs by annexin V/propidium iodide staining based FACS analysis (reference value: 3.01%); format: functional
MV4-11 [16] = assay: Induction of apoptosis in human MV4-11 cells assessed as dead cells after 48 hrs by annexin V/propidium iodide staining based FACS analysis; format: functional, cell-based
[17] = Clearance in overnight fasted Sprague-Dawley rat plasma at 1 mg/kg, iv up to 24 hrs by LC-MS/MS analysis; format: ADME, organism-based
[18] = Half life in overnight fasted Sprague-Dawley rat plasma at 1 mg/kg, iv up to 24 hrs by LC-MS/MS analysis; format: ADME, organism-based
[19] = AUC (0 to infinity) in overnight fasted Sprague-Dawley rat plasma at 1 mg/kg, iv up to 24 hrs by LC-MS/MS analysis; format: ADME, organism-based; parameters: dose 1 mg/kg, route intravenous, time infinity
[20] = Cmax in overnight fasted Sprague-Dawley rat plasma at 10 mg/kg administered via oral gavage up to 24 hrs by LC-MS/MS analysis; format: ADME, organism-based; parameters: dose 10 mg/kg, route oral
[21] = Half life in overnight fasted Sprague-Dawley rat plasma at 10 mg/kg administered via oral gavage up to 24 hrs by LC-MS/MS analysis; format: ADME, organism-based
MOLT-4 = assay: Antiproliferative activity against human MOLT4 cells after 72 hrs by MTT assay; format: functional, cell-based; conditions: MOLT-4, 72 h
DMS-79 = assay: Antiproliferative activity against human DMS79 cells after 72 hrs by MTT assay; format: functional, cell-based; conditions: DMS-79, 72 h
NCI-H187 = assay: Antiproliferative activity against human NCI-H187 cells after 72 hrs by MTT assay; format: functional, cell-based; conditions: NCI-H187, 72 h
NCI-H1299 = assay: Antiproliferative activity against human H1299 cells after 72 hrs by SRB assay; format: functional, cell-based; conditions: NCI-H1299, 72 h
NCI-H1975 = assay: Antiproliferative activity against human NCI-H1975 cells after 72 hrs by SRB assay; format: functional, cell-based; conditions: NCI-H1975, 72 h
MV4-11 [22] = assay: Antitumor activity against human MV4-11 cells xenografted in nude BALB/c mouse assessed as tumor growth inhibition at 25 mg/kg, po qd for 14 days measured every 2 days; format: functional; conditions: MV4-11, po, read-out: TGI
MV4-11 [23] = assay: Antitumor activity against human MV4-11 cells xenografted in nude BALB/c mouse assessed as tumor growth inhibition at 50 mg/kg, po qd for 14 days measured every 2 days; format: functional; conditions: MV4-11, po, read-out: TGI
MV4-11 [24] = assay: Antitumor activity against human MV4-11 cells xenografted in nude BALB/c mouse assessed as tumor growth inhibition at 50 mg/kg, ip qd for 14 days measured every 2 days; format: functional; conditions: MV4-11, ip, read-out: TGI
[25] = target: Receptor-type tyrosine-protein kinase FLT3 (Homo sapiens, UniProt P36888, ITD); assay: Binding affinity to human partial length FLT3 ITD mutant expressed in bacterial expression system after 1 hr
[26] = target: Receptor-type tyrosine-protein kinase FLT3 (Homo sapiens, UniProt P36888, D835V); assay: Binding affinity to human partial length FLT3 D835V mutant (592 to 969 residues) expressed in mammalian expression system after 1 hr
[27] = target: Receptor-type tyrosine-protein kinase FLT3 (Homo sapiens, UniProt P36888, D835V/ITD); assay: Binding affinity to human partial length FLT3 ITD/D835V mutant expressed in mammalian expression system after 1 hr
[28] = target: Tyrosine-protein kinase JAK1 (Homo sapiens) (UniProt P23458); assay: Inhibition of human JAK1 expressed in mammalian or bacterial system assessed as remaining enzyme activity at 1 uM relative to untreated control
Sequence of Tyrosine-protein kinase JAK1 (Homo sapiens) (P23458 whole entry): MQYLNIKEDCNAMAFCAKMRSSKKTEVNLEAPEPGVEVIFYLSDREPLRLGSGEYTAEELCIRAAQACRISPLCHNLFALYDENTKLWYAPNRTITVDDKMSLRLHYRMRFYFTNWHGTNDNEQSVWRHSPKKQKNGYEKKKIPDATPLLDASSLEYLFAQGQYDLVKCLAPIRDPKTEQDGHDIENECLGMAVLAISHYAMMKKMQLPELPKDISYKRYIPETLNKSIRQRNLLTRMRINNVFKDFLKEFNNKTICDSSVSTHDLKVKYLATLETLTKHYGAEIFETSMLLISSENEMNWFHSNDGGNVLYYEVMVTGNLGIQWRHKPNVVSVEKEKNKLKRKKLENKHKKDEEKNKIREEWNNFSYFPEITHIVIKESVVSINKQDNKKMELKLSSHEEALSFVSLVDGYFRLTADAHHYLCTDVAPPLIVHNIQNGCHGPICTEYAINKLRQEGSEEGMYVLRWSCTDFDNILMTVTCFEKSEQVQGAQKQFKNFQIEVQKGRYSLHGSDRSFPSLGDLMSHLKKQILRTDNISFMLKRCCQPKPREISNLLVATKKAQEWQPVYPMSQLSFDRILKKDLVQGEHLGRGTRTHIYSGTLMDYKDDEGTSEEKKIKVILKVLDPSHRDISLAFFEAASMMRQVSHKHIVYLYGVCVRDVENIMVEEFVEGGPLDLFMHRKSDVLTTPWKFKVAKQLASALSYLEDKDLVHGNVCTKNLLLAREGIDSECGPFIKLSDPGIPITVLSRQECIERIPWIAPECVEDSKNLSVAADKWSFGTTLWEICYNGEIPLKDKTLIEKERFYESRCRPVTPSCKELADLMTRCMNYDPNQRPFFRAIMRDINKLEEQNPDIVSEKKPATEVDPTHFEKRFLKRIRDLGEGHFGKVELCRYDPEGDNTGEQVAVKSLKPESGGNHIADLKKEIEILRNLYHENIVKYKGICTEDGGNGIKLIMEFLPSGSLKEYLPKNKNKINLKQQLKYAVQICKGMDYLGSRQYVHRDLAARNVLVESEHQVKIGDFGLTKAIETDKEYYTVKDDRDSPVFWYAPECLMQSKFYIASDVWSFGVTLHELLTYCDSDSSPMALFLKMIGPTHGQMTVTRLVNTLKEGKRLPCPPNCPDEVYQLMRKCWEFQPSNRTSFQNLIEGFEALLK

[29] = Ratio of IC50 for human WI38 cells to IC50 for human MV4-11 cells; format: toxicity; conditions: WI38 cells versus MV4-11 cells, read-out: Ratio IC50
[30] = target: Receptor-type tyrosine-protein kinase FLT3 (Homo sapiens) (UniProt P36888); assay: Inhibition of human FLT3 expressed in bacterial system assessed as remaining enzyme activity at 1 uM relative to untreated control
MV4-11 [31] = assay: cells; conditions: Homo sapiens, MV4-11, 72 h
Description: Antiproliferative activity against human MV4-11 cells harboring FLT3-ITD mutant after 72 hrs by MTT assay

Cc1cc(Nc2ncc3ncc(=O)n(-c4ccc(N)cc4)c3n2)ccc1N1CCN(C)CC1
Activity (MV4-11 [1]): 65.64% | Activity (MV4-11 [2]): 70.2% | Activity (MV4-11 [3]): 11.4% | Activity (MV4-11 [4]): 2.06% | Activity (MV4-11 [5]): 80.55% | Activity (MV4-11 [6]): 3.07% | viability at 0.001 µM (MV4-11 [7]): 90.3% | Activity (MV4-11 [8]): 0.1% | Activity (MV4-11 [9]): 9.71% | Activity (MV4-11 [10]): 3.34% | Activity (MV4-11 [11]): 0.01% | Activity (MV4-11 [12]): 23% | Activity (MV4-11 [13]): 16.4% | viability at 10 µM (MV4-11 [14]): 0.02% | Activity (MV4-11 [15]): 31.3% | Activity (MV4-11 [16]): Dose-dependent effect | clearance [17]: 142 mL/min/kg | half-life [18]: 3.11 h | AUC(0-inf) [19]: 119 ng·h/mL | Cmax [20]: 41 ng/mL | half-life [21]: 4.49 h | IC50 (MOLT-4): 2120 nM | IC50 (DMS-79): > 10000 nM | IC50 (NCI-H187): > 10000 nM | IC50 (NCI-H1299): 4880 nM | IC50 (NCI-H1975): 4460 nM | inhibition in vivo at 25 mg/kg (MV4-11 [22]): 87% | inhibition in vivo at 50 mg/kg (MV4-11 [23]): 128% | inhibition in vivo at 50 mg/kg (MV4-11 [24]): 136% | Kd [25]: 6.9 nM | Kd [26]: 0.25 nM | Kd [27]: 0.79 nM | Activity [28]: < 1% | selectivity ratio [29]: 33 to 81 | Activity [30]: < 1% | IC50 (MV4-11 [31]): 51 nM
